# Experimental data reported in patent publication US7618998B2, “Isoflavone derivatives and pharmaceutical compositions comprising the same” (Kaosiung Medical University, priority 2008, dated 2009).
# Assays:
# [1] = tested on: TRAP activity in RAW 264.7; assay: Tartrate resistant acid phosphatase (TRAP) solution assay in RANKL-treated RAW 264.7 cells; format: cell-based; conditions: for inhibition at 10 µM: Mus musculus, RAW264.7, 120 h, 5 days, RANKL 100 ng/mL
# Experimental: 10^3 Raw 264.7 cells were cultured in 96-well plates with 100 ng/mL RANKL (R&D Systems, Minneapolis, Minn.). Cultures were incubated at 37° C. in 5% CO2 for 5 days with the addition of media containing fresh RANKL on day 3. In the TRAP solution assay, enzyme activity was examined by the conversion of α-naphthyl phosphate (4 mmol/liter; Sigma Chemical Co.) to α-naphthol in the presence of a 2 mol/liter L-tartrate solution (Sigma Chemical Co.) in each well. Absorbance was measured at 405 nm using a microplate reader (model 550; Bio-Rad Labs.) (Bandyopadhyay, S. et. el. Biochem. Pharmacol. 2006, 72, 184.).
# [2] = tested on: hADSCs; assay: Cell viability by MTT assay in hADSCs; format: cell-based, Human; conditions: 10 μM, % of control
# Experimental: (§1) Human adipose tissue derived stem cells (hADSCs), which is derived from adipose tissue, were selected an maintained in a keratinocyte SFM medium (Gibco BRL, Gaithersburg, Md.) supplemented with 5% FBS, 100 U/ml of penicillin and streptomycin.
# (§2) New synthetic compounds were dissolved in DMSO to a final concentration of 10 mM and stored at −20° C. The concentration used was 10 μM and freshly diluted to the medium with a final concentration of DMSO at 0.1%. Control cultures were treated with the same amount of DMSO as used in the corresponding experiments.
# (§3) The MTT assay is a calorimetric assay based on the ability of the viable cells to reduce a soluble yellow tetrazolium salt to blue formazan crystals (Carmichael, J. et. el. Cancer Research 1987, 47, 936). After compound treatments, 350 μL of MTT solution ([…] in PBS) were added to each well and incubated for 4 hrs. DMSO was then added for another 0.5 hrs to thoroughly dissolve the dark blue crystals. The absorbance at 570 nm was measured with an ELISA reader. Inhibition of mitochondrial metabolism was shown as relative activity (% of control).
# [3] = tested on: D1 cells; assay: Osteogenic differentiation, quantification of mineralization (Alizarin red S) in D1 cells; format: cell-based, Balb/c mice; conditions: 10 μM, osteo-induction medium
# Experimental: (§4) D1-cell, which is a mesenchymal stem cell line cloned from bone marrow cells of Balb/c mice, were purchased from American Type Culture Collection (Rockville, Md.). D1-cells can be induced into osteoblasts, adipocytes and chondrocytes. D1-cells were maintained in DMEM (Gibco BRL, Gaithersburg, Md.) supplemented with 10% FBS, 100 U/ml of penicillin and streptomycin.
# as §2
# (§5) Osteogenic differentiation was induced by culturing cells in an osteo-induction medium (OIM, 10% FBS, 0.1 μM dexamethasone, 10 mM β-glycerophosphate, and L-Ascorbic 2 phosphate 100 μM in low glucose DMEM) for 7-14 days. The extracellular matrix calcification was estimated by using an Alizarin red S stain (Carl, A. et al Anal. Biochem. 2004, 329, 77). The Alizarin red S-stained mineral was quantified by the osteogenesis quantification kit (CHEMICON®).
# [4] = tested on: D1 cells; assay: Cell viability by MTT assay in D1 cells; format: cell-based, Balb/c mice; conditions: 10 μM, % of control
# Experimental: as §4, §2, §3
# [5] = tested on: hADSCs; assay: Osteogenic differentiation, quantification of mineralization (Alizarin red S) in hADSCs; format: cell-based, Human; conditions: 10 μM, osteo-induction medium
# Experimental: as §1, §2, §5
# [6] = tested on: MC3T3E1 cells; assay: Osteogenic differentiation, quantification of mineralization (Alizarin red S) in MC3T3E1 cells; format: cell-based, C57BL/6 mice; conditions: for Mineralization MC3T3E1 cells (12 days): 10 μM, osteo-induction medium
# Experimental: MC3T3E1 cell, which is a preosteoblast cell line derived from calvaria of C57BL/6 mice, were obtained from the American Type Culture Collection (Rockville, Md.). MC3T3E1 cells were maintained in αMEM (Gibco BRL, Gaithersburg, Md.) supplemented with 10% FBS, 100 U/mL of penicillin and streptomycin.
# as §2, §5
structure (smiles),measurement,setting,value
"COc1ccc(-c2coc3cc(OCC(O)CNC4CCCCC4)ccc3c2=O)cc1OC (stereo not drawn) [Compound 6c, 7-[3-(Cyclohexylamino)-2-hydroxypropoxy]-3-(3,4-dimethoxyphenyl)-4H-chromen-4-one]",inhibition at 10 µM,[1],120%
same,melting point,,70 to 71 °C
COc1ccc2c(=O)c(-c3ccc(OCC(O)CNC4CC4)cc3)coc2c1 (stereo not drawn) [Compound 5b],inhibition at 10 µM,[1],103%
same,melting point,,105 to 106 °C
"CC(C)Oc1ccc2c(=O)c(-c3ccccc3)coc2c1 [Ipriflavone, reference compound]","Cell viability hADSCs (3 days, MTT)",[2],99%
same,inhibition at 10 µM,[1],31%
same,Mineralization D1 cells (7 days),[3],100%
same,"Cell viability D1 cells (3 days, MTT)",[4],81%
same,Mineralization hADSCs (10 days),[5],100%
same,Mineralization MC3T3E1 cells (12 days),[6],100%
"COc1ccc(-c2coc3cc(OCC(O)CN4CCOCC4)ccc3c2=O)cc1OC (stereo not drawn) [Compound 6a, 3-(3,4-Dimethoxyphenyl)-7-(2-hydroxy-3-morpholinopropoxy)-4H-chromen-4-one]",inhibition at 10 µM,[1],0%
same,melting point,,135 to 136 °C
"COc1ccc2c(=O)c(-c3ccc(OCC4CO4)cc3)coc2c1 (stereo not drawn) [Compound 3, 7-Methoxy-3-[4-(oxiran-2-ylmethoxy)phenyl]-4H-chromen-4-one]",inhibition at 10 µM,[1],107%
same,melting point,,153 to 154 °C
"COc1ccc(-c2coc3cc(OCC4CO4)ccc3c2=O)cc1OC (stereo not drawn) [Compound 4, 3-(3,4-Dimethoxyphenyl)-7-(oxiran-2-ylmethoxy)-4H-chromen-4-one]","Cell viability hADSCs (3 days, MTT)",[2],84%
same,inhibition at 10 µM,[1],119%
same,Anti-osteoporotic activities compared with compound 5c,[1]; overall statement on Tables 1 and 2 (TRAP inhibition and mineralization),comparable anti-osteoporotic activities with that of compound 5c
same,Mineralization D1 cells (7 days),[3],112%
same,"Cell viability D1 cells (3 days, MTT)",[4],76%
same,Mineralization hADSCs (10 days),[5],429%
same,Mineralization MC3T3E1 cells (12 days),[6],977%
"COc1ccc2c(=O)c(-c3ccc(OCC(O)CN4CCOCC4)cc3)coc2c1 (stereo not drawn) [Compound 5a, 3-[4-(2-Hydroxy-3-morpholinopropoxy)phenyl]-7-methoxy-4H-chromen-4-one]",inhibition at 10 µM,[1],0%
same,melting point,,117 to 118 °C
"COc1ccc(-c2coc3cc(OCC(O)CN4CCNCC4)ccc3c2=O)cc1OC (stereo not drawn) [Compound 6b, 3-(3,4-Dimethoxyphenyl)-7-[2-hydroxy-3-(piperazin-1-yl)propoxy]-4H-chromen-4-one]",inhibition at 10 µM,[1],0%
same,melting point,,84 to 85 °C
"COc1ccc2c(=O)c(-c3ccc(OCC(O)CNC4CCCCC4)cc3)coc2c1 (stereo not drawn) [Compound 5c, 3-{4-[3-(Cyclohexylamino)-2-hydroxypropoxy]phenyl}-7-methoxy-4H-chromen-4-one]","Cell viability hADSCs (3 days, MTT)",[2],97%
same,inhibition at 10 µM,[1],119%
same,Osteoclast inhibitory activity (inhibition of TRAP activity in RAW 264.7) relative to ipriflavone,[1]; more active than ipriflavone,4 fold
same,Mineralization D1 cells (7 days),[3],78%
same,"Cell viability D1 cells (3 days, MTT)",[4],82%
same,Mineralization MC3T3E1 cells (12 days),[6],976%
same,Promotion of osteoblast activity (mineralization in MC3T3E1 cells) relative to ipriflavone,[6]; more active than ipriflavone,10 fold
same,melting point,,125 to 126 °C
